{"source": "patent US20220362279A1", "about": "“USE OF OLIGONUCLEOTIDES FOR THE TREATMENT AND PREVENTION OF PAIN” (CONSEJO NACIONAL DE INVESTIGACIONES CIENTÍFICAS Y TÉCNICAS, priority 2018, published 2022)", "assay_type_in_all_cases": "in vivo, rat", "key": {"[1]": {"test_system": "rats with post-incisional pain", "experiment": "Mechanical allodynia in rats with post-incisional pain (plantar incision)", "conditions": "6 mg/kg s.c. 48 h and 24 h before incision", "source_text": "In twenty-four rats anesthetized with Isoflurane (5% induction, 2.5% maintenance, 0.8 L/min O2 flow rate; Scott-Cassara, Argentina), the right hind paw plantar skin was cleaned and disinfected. This was followed by a 1-cm longitudinal incision distal to heel and extending towards the toes, as previously described (Xu J, et al., 2011, 24(5): 508-514). The incision involved both plantar skin and fascia. This was followed by identification and longitudinal incision of plantar […] muscle, leaving its insertions intact. After achieving homeostasica, skin was sutured using a 5-0 nylon suture, protected with an antibacterial cream and the animal was returned to its retention cage, under observation, until full recovery from anesthesia.\nRats were subcutaneously administered 6 mg/kg of IMT504, 48 and 24 h before implementing the post-incisional pain model. This was followed by pain-like behavior testing for up to 21 days after injury.\nFor mechanical allodynia assessment, a set of von Frey filaments (Stoelting, Ill., USA) and the modified up-down method of Dixon were used, to establish the 50% withdrawal threshold. A withdrawal threshold of 0.21 oz or less was considered an allodynic response."}, "rats with SNI": {"test_system": "rats with SNI", "experiment": "Cold allodynia in rats with spared nerve injury (SNI)", "conditions": "single dose of 6 mg/kg seven days after SNI, s.c.", "source_text": "In twenty-six rats anesthetized with Isoflurane (5% induction, 2.5% maintenance, 0.8 L/min O2 flow rate; Piramal Healthcare, UK), the right sciatic nerve and its three distal branches were exposed by blunt dissection, and the tibial and common peronneal branches completely sectioned and ligated to prevent regeneration. The third branch, the sural nerve, was left intact. The animals received one single injection of ketoprofen for post-surgical pain control and were left to recover from anesthesia in a warm and quiet environment before relocating them in their corresponding cages.\nRats were administered subcutaneously using the LT protocol (FIG. 4A) and a single dose of 6 mg/kg of IMT504. This was followed by pain-like behavior testing for up to six weeks after SNI.\nNaïve (uninjured and untreated; n=16), CFA injured untreated (n=10), and vehicle-treated CFA (n=9) or SNI rats (n=10) were used as controls. Eight naïve rats remained untreated, four were vehicle-treated, and four received a daily dose of 20 mg/kg IMT504 for five consecutive days. Untreated CFA rats received an intradermal hind paw injection of CFA and no further treatment. […]\nFor cold allodynia assessment, the reaction to the application of a drop of acetone onto the plantar surface of the hind paw was used. Both frequency of withdrawal and cold score (pain-like behavior intensity) were measured."}, "naïve rats": {"test_system": "naïve rats", "experiment": "Tail immersion test (tail heat nociception) in naïve rats", "conditions": "20 mg/kg daily x5; observed up to 22 days; 52° C. bath", "description": "Naïve (uninjured and untreated; n=16), CFA injured untreated (n=10), and vehicle-treated CFA (n=9) or SNI rats (n=10) were used as controls. Eight naïve rats remained untreated, four were vehicle-treated, and four received a daily dose of 20 mg/kg IMT504 for five consecutive days. Untreated CFA rats received an intradermal hind paw injection of CFA and no further treatment. Vehicle-treated CFA rats received five daily subcutaneous injections of saline (200 μl), starting seven days after injury. Vehicle-treated SNI rats received one single dose of saline (200 ul), starting seven days after injury.\nFor acute thermal nociception assessment, the tail immersion test was used. The latency of tail-flick reflex to swift immersion of the last 3 cm of the tip of the tail of each rat on a hot bath (52° C.) was measured using a stopwatch (resolution of 0.01 s). This was repeated three times, with 10 s intervals, and an average response was obtained."}, "[2]": {"test_system": "rats with postsurgical pain (plantar incision)", "experiment": "Opioid sparing: morphine in VEH- or IMT504-pre-treated rats with plantar incision, mechanical withdrawal threshold", "description": "In all experiments, the oligodeoxynucleotide (ODN) IMT504, with sequence 5′-[…]-3′ (SEQ ID No 1) was used. The HPLC-grade phosphorothioate ODN (Biosynthesis Inc., Lewisville, Tex., USA) was suspended in sterile saline solution (VEH, 0.9% NaCl; 20 mg/ml; storage concentration) and assayed for LPS contamination. Working concentration doses (6 mg/kg) were obtained by additional dissolving in sterile VEH. The ODN was administered subcutaneously, at a final volume of 200-300 μl, depending on animal weight.\nExperiments addressing the opioid sparing effects of IMT504 included the subcutaneous (s.c.) injection of morphine hydrochloride trihydrate (Neocalmans, 10 mg/ml, Soubeiran Chobet, Buenos Aires, Argentina) at three different concentrations (1, 3 or 10 mg/kg, dissolved in sterile distilled water).\nThe rat hind paw plantar incision model of postoperative pain was used as previously described [Brennan, T. J., E. P. Vandermeulen, and G. F. Gebhart, Characterization of a rat model of incisional pain. Pain, 1996. 64(3): p. 493-501. Briefly, rats were anesthetized using isoflurane (5% induction, 2.5% maintenance, 0.8 l/min O2 flow rate; Piramal Healthcare, UK) and the plantar aspect of the right hind paw was disinfected with povidone iodine. A 1.0-cm longitudinal incision was made 0.5 cm from the end of the heel. The underlying flexor muscle was also incised longitudinally, allowing the muscle origin and insertion to remain intact. After hemostasis by gentle pressure, the skin was closed with sutures of 5-0 nylon.\nRats were divided into injured rats receiving IMT504 (6 mg/kg, dissolved in VEH) or VEH alone, 48h and 24 h prior to surgery. These groups were further subdivided into: 1) Rats followed during 3 days after the injury (n=6 per group), for assessment of pain-like behavior after the co-administration of morphine dissolved in injectable water (vehicle) at different doses, 6 and 24 h after injury; 2) Rats followed during 3 days after the injury (n=6 per group), for assessment of pain-like behavior after the co-administration of injectable water (vehicle) alone, 6 and 24 h after injury; 3) Rats followed during 21 days (n=8), for analysis of the administration of naloxone, 3 days after injury.\nMechanical withdrawal thresholds were assessed by using von Frey nylon monofilaments of different bending forces (1.4, 2, 6, 8, 10, 15 and 26 g; Stoelting Inc., Wooddale, USA) and the modified up-down method of Dixon, as described by Chaplan and cols. (Chaplan, S. R., et al., Quantitative assessment of tactile allodynia in the rat paw. J Neurosci Methods, 1994. 53(1): p. 55-63) , to establish the 50% withdrawal threshold. Results were obtained using the formula: 50% g threshold=[…], where Xf=value (in log units) of the final von Frey hair used; k=tabular value for the pattern of positive/negative responses; and […] difference (in log units) between stimuli. Mechanical withdrawal thresholds were tested 48 h before surgery (basal responses), and 6 h, 1, 3, 7, 14 and 21 days after injury.\nA dose-response experiment to evaluate the effect of the s.c. administration of morphine at different doses (10, 3 and 1 mg/kg), 6 h or 1 day after injury, in VEH- or IMT504-treated rats (time-points were chosen based on the fact that a certain degree of mechanical withdrawal threshold alterations was still present in IMT504-treated rats was done, which allowed to test if within this therapeutic window, it was possible to fully revert pain-like behavior using smaller morphine doses). […]"}}, "note": "Entries after “also recorded” stand apart in the source; their conditions may differ. Strand notation (5' to 3'): a small letter for the sugar, then the base; units joined by * are phosphorothioate-linked, units joined directly phosphodiester-linked; [ ] holds rarer units or linkages, { } end groups; capitals alone tell only the bases. d = 2'-deoxy (DNA)"}
{"substance": "IMT504: synthetic phosphorothioate oligodeoxynucleotide with sequence 5′-TCATCATTTTGTCATTTTGTCATT-3′ (SEQ ID No 1) (DNA dT*dC*dA*dT*dC*dA*dT*dT*dT*dT*dG*dT*dC*dA*dT*dT*dT*dT*dG*dT*dC*dA*dT*dT)", "values": [{"measurement": "day after injury from which basal withdrawal thresholds are shown", "setting": "[1]", "value": 3, "unit": "days"}, {"measurement": "mechanical withdrawal thresholds and responses to cold stimuli in contralateral hind paws", "setting": "[1]; data not shown", "value": "remained normal"}, {"measurement": "reduction of mechanical withdrawal thresholds at 6 h and 1 day after injury", "setting": "[1]; vs vehicle", "value": "lower reduction of withdrawal thresholds"}, {"measurement": "cold score", "setting": "rats with SNI", "value": "reduced to basal levels ten days after injury and onwards"}, {"measurement": "cold withdrawal frequency reduced to basal levels", "setting": "rats with SNI", "value": "three weeks after injury"}, {"measurement": "tail thermal withdrawal latency in naïve rats", "setting": "naïve rats", "value": "did not shown changes; also recorded: did not show any evident changes"}, {"measurement": "anti-allodynic effect of pre-emptive IMT504 and 3 mg/kg morphine", "setting": "[2]; 6 h and 1 day after injury challenges", "value": "anti-allodynic effects directly comparable to those described for the 10 mg/kg dose in VEH rats"}, {"measurement": "time post injection of morphine with withdrawal thresholds remaining significantly higher", "setting": "[2]; IMT504-pre-treated rats (6 mg/kg, 48 h and 24 h before surgery), particularly at morphine 3 and 10 mg/kg", "value": "≥ 120", "unit": "min"}, {"measurement": "withdrawal threshold once the effect of the opioid had worn out (240 min)", "setting": "[2]; IMT504 rats receiving 10 mg/kg morphine, 1 day after injury, vs VEH counterparts", "value": "retained a significantly higher withdrawal threshold than their VEH counterparts"}, {"measurement": "reduction in morphine concentration to achieve the same effect as in VEH-treated injured rats receiving the highest dose", "setting": "[2]; area under the curve analyses (FIG. 16, FIG. 17)", "value": 3, "unit": "fold"}]}
